Consider one cell line from the supplement of paper PMC10307832.

What all share (experiment): relative viability (nuclei count vs DMSO), 5 days (fraction); higher = more cells survive
Compound in assay [1]: C[C@@H](N)c1ccc(C(=O)Nc2ccnc3[nH]ccc23)cc1 + COc1cc2c(Oc3ccc(NC(=O)C4(C(=O)Nc5ccc(F)cc5)CC4)cc3F)ccnc2cc1OCCCN1CCOCC1 [Foretinib] (partner 0.25 µM)
In short, it runs like this: (§1)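 One day after seeding in 1536-well plates, lung cancer cell lines were dosed by pin tool. Dosing was either single-drug or a fixed anchor-drug dose plus five library-drug doses (not always all listed) in √10 steps. After 5 days, nuclei were stained in one fix-and-stain step and counted on 4× images, and relative viability is the nuclei count of treated wells over that of vehicle wells, given as the median of duplicate plates.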

Compound in assay [2]: C[C@@H](N)c1ccc(C(=O)Nc2ccnc3[nH]ccc23)cc1 + CS(=O)(=O)N1CCN(Cc2cc3nc(-c4cccc5[nH]ncc45)nc(N4CCOCC4)c3s2)CC1 [Pictilisib] (partner 1 µM)
A digest of the protocol:
as §1

Compound in assay [3]: C1CNCCC1C2=CC(=NN2)C3=CC=NC=C3 + COc1cccc2cc(-c3nc([C@H]4CC[C@H](C(=O)O)CC4)n4ncnc(N)c34)[nH]c12 [OSI-027] (partner 0.5 µM)
In short, it runs like this: as §1

Compound in assay [4]: O[C@H]1CC[C@H](Nc2ncc3nc(Nc4c(F)cc(F)cc4F)n([C@H]4CCOC4)c3n2)CC1 [Tanzisertib] + COc1cc2c(Oc3ccc(NC(=O)C4(C(=O)Nc5ccc(F)cc5)CC4)cc3F)ccnc2cc1OCCCN1CCOCC1 [Foretinib] (partner 0.25 µM)
In short, it runs like this: as §1

Turning to UMC-11, the relative viability came out at 1.14 in assay [1] (first compound 0.04 µM); 1.1 in assay [1] (first compound 0.1265 µM); 1.12 in assay [1] (first compound 0.4 µM); 1 in assay [1] (first compound 1.265 µM); 0.694 in assay [1] (first compound 4 µM); 0.715 in assay [2] (first compound 0.04 µM). Besides, the relative viability in assay [2] (first compound 0.1265 µM) was 0.759; in assay [2] (first compound 0.4 µM) it was 0.93; in assay [2] (first compound 1.265 µM) it was 0.177; in assay [2] (first compound 4 µM), 0.767; in assay [3] (first compound 0.08 µM) it was 0.452; in assay [3] (first compound 0.8 µM), 0.537. For the same cell line, the relative viability in assay [3] (first compound 2.53 µM) is 0.459; in assay [3] (first compound 8 µM), 0.553; in assay [4] (first compound 0.08 µM), 0.976; in assay [4] (first compound 0.253 µM), 1.14; in assay [4] (first compound 0.8 µM), 0.962; in assay [4] (first compound 2.53 µM), 1.01. The relative viability in assay [4] (first compound 8 µM) was found to be 1.18.
